ChEMBL document CHEMBL5537187, “Discovery of N-(1-(6-Oxo-1,6-dihydropyrimidine)-pyrazole) Acetamide Derivatives as Novel Noncovalent DprE1 Inhibitors against Mycobacterium tuberculosis” (J Med Chem, 2024)
Values after ≈ are worked out from the molar mass of the structure shown. Active and inactive are the calls of the source. The rule behind the calls is not given here.

Assays:
[1] = tested on: Mycobacterium tuberculosis; assay: microbe, parasite or virus in culture; details: H37Ra
Description: Antimycobacterial activity against autoluminescent Mycobacterium tuberculosis H37Ra assessed as inhibition of bacterial growth measured after 3 to 7 days by luminescence based analysis

[2] = in vitro; details: human, HepG2 cells
Description: Cytotoxicity against human HepG2 cells assessed as reduction in cell viability

[3] = tested on: Mycolicibacterium smegmatis; assay: Antimycobacterial activity against Mycobacterium smegmatis […] assessed as inhibition of bacterial growth incubated for 48 hrs by spectrophotometer; type: functional
[4] = tested on: Mycobacterium tuberculosis; assay: Antimycobacterial activity against Mycobacterium tuberculosis assessed as inhibition of bacterial growth incubated for 24 hrs by alamar blue assay; type: functional
[5] = tested on: Mycobacterium tuberculosis; type: functional; details: H37Ra
[6] = Cytotoxicity against human Chang liver cells assessed as inhibition of cell growth; type: toxicity, cell-based
[7] = Antimicrobial activity against Akkermansia muciniphila assessed as inhibition of microbial growth upto 2 uM; type: toxicity
[8] = Antimicrobial activity against Lactobacillus reuteri assessed as inhibition of microbial growth upto 2 uM; type: toxicity; details: limosilactobacillus reuteri
[9] = Antimicrobial activity against Bifidobacterium pseudocatenulatum assessed as inhibition of microbial growth upto 2 uM; type: toxicity
[10] = molecular target: T1, Decaprenylphosphoryl-beta-D-ribose oxidase (Mycobacterium tuberculosis (strain ATCC 25618 / H37Rv), UniProt P9WJF1)
T1 sequence (P9WJF1 whole entry): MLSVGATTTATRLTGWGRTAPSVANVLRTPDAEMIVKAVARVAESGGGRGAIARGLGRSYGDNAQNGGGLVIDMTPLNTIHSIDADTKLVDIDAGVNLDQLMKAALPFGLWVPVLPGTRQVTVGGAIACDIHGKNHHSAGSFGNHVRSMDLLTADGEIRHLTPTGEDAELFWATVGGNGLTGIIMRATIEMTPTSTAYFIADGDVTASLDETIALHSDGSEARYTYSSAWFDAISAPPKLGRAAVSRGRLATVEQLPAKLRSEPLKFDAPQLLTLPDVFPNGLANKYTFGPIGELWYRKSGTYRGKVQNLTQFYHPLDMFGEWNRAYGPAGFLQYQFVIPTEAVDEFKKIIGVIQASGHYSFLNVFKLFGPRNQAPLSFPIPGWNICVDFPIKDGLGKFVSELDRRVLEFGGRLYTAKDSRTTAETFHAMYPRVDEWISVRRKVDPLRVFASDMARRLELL
Description: Binding affinity to Mycobacterium tuberculosis DprE1 assessed as dissociation constant by biolayer interferometry

[11] = tested on: Mycolicibacterium smegmatis; assay: Synergistic antimycobacterial activity against Mycobacterium smegmatis assessed as inhibition of bacterial growth at 0.5 times MIC50 incubated for 7 days in presence of 0.5 times MIC50 of rifampicin by checkerboard assay; type: functional, organism-based; details: time 7.0 day
[12] = Antimicrobial activity against Clostridium tyrobutyricum assessed as inhibition of microbial growth upto 2 uM; type: toxicity
[13] = tested on: Mycolicibacterium smegmatis; assay: Synergistic antimycobacterial activity against Mycobacterium smegmatis assessed as inhibition of bacterial growth at 0.5 times MIC50 incubated for 7 days in presence of 0.5 times MIC50 of ethambutol by checkerboard assay; type: functional, organism-based; details: time 7.0 day
[14] = tested on: Mycolicibacterium smegmatis; assay: Antimycobacterial activity against Mycobacterium smegmatis […] assessed as inhibition of bacterial growth at 10 uM incubated for 48 hrs by spectrophotometer relative to control; type: functional
[15] = molecular target: T2, Decaprenylphosphoryl-beta-D-ribose oxidase (Mycobacterium tuberculosis (strain ATCC 25618 / H37Rv)) (UniProt P9WJF1); assay: Binding affinity to Mycobacterium tuberculosis DprE1 upto 166.7 microM by biolayer interferometry
T2 sequence (whole entry): T1 sequence (P9WJF1 whole entry)

SMILES | MIC90 [1] | IC50 [2] | MIC [3] | further results
COc1ccc2nc(-n3nc(C)cc3NC(=O)c3cccc(C)c3)[nH]c(=O)c2c1 | 0.8 µM (≈ 0.312 µg/mL) |  |  | 
Cc1cccc(Nc2cc(C)nn2-c2nc3ccccc3c(=O)[nH]2)c1 | 0.94 µM (≈ 0.311 µg/mL) |  |  | 
Cc1cc(NC(=O)c2ccc3ccccc3c2)n(-c2nc3c(c(=O)[nH]2)CCC3)n1 |  | 144 µM | > 50 µM | 
CCc1cc(=O)[nH]c(-n2nc(C)cc2NC(C)=O)n1 | 50 µM (≈ 13.1 µg/mL) |  |  | 
CCc1cc(=O)[nH]c(-n2nc(C)cc2N)n1 | 6.25 µM (≈ 1.37 µg/mL) |  |  | 
Cc1cccc(C(=O)Nc2cc(C)nn2-c2nc3ccc(Cl)cc3c(=O)[nH]2)c1 | 1.59 µM (≈ 0.626 µg/mL) |  |  | 
Cc1cc(NC(=O)Cc2ccccc2)n(-c2nc3ccccc3c(=O)[nH]2)n1 | 7.22 µM (≈ 2.59 µg/mL) |  |  | 
Cc1cccc(C(=O)Nc2cc(C)nn2-c2nc3ccc(C)cc3c(=O)[nH]2)c1 | 0.84 µM (≈ 0.314 µg/mL) |  |  | 
C=CCN1C(=O)NC(=O)/C(=C\NNC(=O)c2ccncc2)C1=O |  |  |  | MIC [4]: 9.75 µM (≈ 3.07 µg/mL)
COc1ncnc(Cn2cc(C(=O)NCCO)c3ncc(C)cc32)c1C [TBA-7371] | 12.5 µM (≈ 4.44 µg/mL) | 165 µM | 2.54 µM (≈ 0.903 µg/mL) | 
Cc1cccc(C(=O)Nc2cc(C)nn2-c2nc3cc(F)ccc3c(=O)[nH]2)c1 | 1.66 µM (≈ 0.626 µg/mL) |  |  | 
CCc1c(C)nc(-n2nc(C)cc2NC(=O)COc2cccc(C)c2)[nH]c1=O | 5.98 µM (≈ 2.28 µg/mL) | 41.2 µM | 7.71 µM (≈ 2.94 µg/mL) | 
O=C(Cc1ccccc1)NNC(=O)c1cc([N+](=O)[O-])cc([N+](=O)[O-])c1 |  |  |  | MIC [5]: 1.25 µM (≈ 0.43 µg/mL)
Cc1cccc(C(=O)Nc2cc(C)nn2-c2nc3ccc(F)cc3c(=O)[nH]2)c1 | 0.83 µM (≈ 0.313 µg/mL) |  |  | 
CCc1cc(=O)[nH]c(-n2nc(C)cc2NC(=O)c2cccc([N+](=O)[O-])c2)n1 | 3.12 µM (≈ 1.15 µg/mL) | 55.4 µM | 0.86 µM (≈ 0.317 µg/mL) | 
CCc1cc(=O)[nH]c(-n2nc(C)cc2Nc2cccc([N+](=O)[O-])c2)n1 | 1.56 µM (≈ 0.531 µg/mL) |  |  | 
CCc1cc(=O)[nH]c(-n2nc(C)cc2NC(=O)C2CCCC2)n1 | 6.25 µM (≈ 1.97 µg/mL) |  |  | 
CCc1cc(=O)[nH]c(-n2nc(C)cc2Nc2cccc(C(F)(F)F)c2)n1 | 0.78 µM (≈ 0.283 µg/mL) | > 100 µM |  | Activity [6]: Non-Toxic; Activity [7]: Non-Toxic; Activity [8]: Non-Toxic; Activity [9]: Non-Toxic; Kd [10]: 25 µM; Activity [11]: Active; Activity [12]: Non-Toxic; Activity [13]: Active
Cc1cccc(C(=O)Nc2cc(C)nn2-c2nc3ccccc3c(=O)[nH]2)c1 | 1.56 µM (≈ 0.561 µg/mL) | > 100 µM |  | Activity [6]: Non-Toxic; Activity [7]: Non-Toxic; Activity [8]: Non-Toxic; Activity [9]: Non-Toxic; Activity [11]: Active; Activity [12]: Non-Toxic; Activity [13]: Active

SMILES | MIC90 [1] | IC50 [2] | MIC [3] | further results
CCc1ccc(N2CC(C(=O)Nc3ccccc3C(=O)Nc3nnc(CC)s3)CC2=O)cc1 (centres undefined) |  | 165 µM | > 50 µM | 
NNC(=O)c1ccncc1 [ISONIAZID] | 0.78 µM (≈ 0.107 µg/mL) | > 100 µM |  | Activity [8]: Non-Toxic; Activity [9]: Toxic; Activity [12]: Toxic
CCc1c(C)nc(-n2nc(C)cc2NC(=O)C2CC(=O)N(c3ccc(C)cc3)C2)[nH]c1=O (centres undefined) |  | > 100 µM | 29.8 µM (≈ 12.9 µg/mL) | inhibition at 10 µM [14]: 38%
Cc1cc(NC(=O)c2ccc(C)c(C)c2)n(-c2nc(C)c(C)c(=O)[nH]2)n1 | 3.56 µM (≈ 1.25 µg/mL) | 38.7 µM | 1.06 µM (≈ 0.372 µg/mL) | 
Cc1nc2ccc(NC(=O)c3cc([N+](=O)[O-])cc([N+](=O)[O-])c3Cl)cc2s1 |  | 86.1 µM | > 50 µM | 
CCc1cc(=O)[nH]c(-n2nc(C)cc2NC(=O)c2cccc(C)c2)n1 | 1.56 µM (≈ 0.526 µg/mL) |  |  | 
CO[C@H]1/C=C/O[C@@]2(C)Oc3c(C)c(O)c4c(O)c(c(/C=N/N5CCN(C)CC5)c(O)c4c3C2=O)NC(=O)/C(C)=C\C=C\[C@H](C)[C@H](O)[C@@H](C)[C@@H](O)[C@@H](C)[C@H](OC(C)=O)[C@@H]1C [RIFAMPIN] |  |  |  | Activity [7]: Toxic; Activity [8]: Non-Toxic; Kd [10]: 93600 µM; Activity [15]: inactive; Activity [12]: Toxic
CCOc1ccc(CC(=O)Nc2cc(C)nn2-c2nc3c(c(=O)[nH]2)CCC3)cc1 | 18.5 µM (≈ 7.26 µg/mL) | 116 µM | 18.5 µM (≈ 7.26 µg/mL) | 
CCOC(=O)C(=O)Nc1cc(C)nn1-c1nc(C)c(CC)c(=O)[nH]1 | 30.6 µM (≈ 10.2 µg/mL) | 83.8 µM | 30.6 µM (≈ 10.2 µg/mL) | 
Cc1cc(NC(=O)c2cccc(C(F)(F)F)c2)n(-c2nc3ccccc3c(=O)[nH]2)n1 | 1.51 µM (≈ 0.624 µg/mL) |  |  | 
CCc1cc(=O)[nH]c(-n2nc(C)cc2Nc2cccc(C)c2)n1 | 0.78 µM (≈ 0.241 µg/mL) |  |  | 
COc1ccc2c(=O)[nH]c(-n3nc(C)cc3NC(=O)c3cccc(C)c3)nc2c1 | 6.43 µM (≈ 2.5 µg/mL) |  |  | 
CC(=O)N1N=C(c2c(O)n(-c3ccccc3C)c(=O)[nH]c2=O)CC1c1ccccc1 (centres undefined) |  | 21 µM | > 50 µM | 
CCc1c(C)nc(-n2nc(C)cc2NC(=O)CCc2ccc(OC)cc2)[nH]c1=O | 6.32 µM (≈ 2.5 µg/mL) | 129 µM | 18 µM (≈ 7.11 µg/mL) | 
Cc1cccc(C(=O)Nc2cc(C)nn2-c2nc3cc(Cl)ccc3c(=O)[nH]2)c1 | 3.18 µM (≈ 1.25 µg/mL) |  |  | 
Cc1cc(NC(=O)c2cccnc2)n(-c2nc3ccccc3c(=O)[nH]2)n1 | 1.81 µM (≈ 0.627 µg/mL) |  |  | 
CCC(CC)C(=O)Nc1nnc(C2CC(=O)N(c3ccc(C)c(Cl)c3)C2)s1 (centres undefined) |  | 43 µM | > 50 µM | 
CCc1cc(=O)[nH]c(-n2nc(C)cc2NC(=O)c2cccc(F)c2)n1 | 6.25 µM (≈ 2.13 µg/mL) |  |  | 
Cc1cccc(C(=O)Nc2cc(C)nn2-c2nc(C3CC3)cc(=O)[nH]2)c1 | 3.12 µM (≈ 1.09 µg/mL) |  |  | 
